# From US20080171740A1, “Chemical Compounds” (SMITHKLINE BEECHAM CORPORATION, priority 2004, published 2008)
# System: HIV-1 IIIB strain, T-tropic (CXCR4 utilizing)
# Experiment: HOS HIV-1 infectivity assay
# Format: cell-based
# Conditions: Human immunodeficiency virus 1, IIIB; HOS HIV anti-infectivity assay; strain not named in Table 2; read-out: Activity Level
# Procedure: Compounds were profiled against two HIV-1 viruses, the M-tropic (CCR5 utilizing) Ba-L strain and the T-tropic (CXCR4 utilizing) IIIB strain. Both viruses were propagated in human peripheral blood lymphocytes. Compounds were tested for there ability to block infection of the HOS cell line (expressing hCXCR4/hCCR5/hCD4/pHIV-LTR-luciferase) by either HIV-1 Ba-L or HIV-1 IIIB. Compound cytotoxicity was also examined in the absence of virus addition.
# HOS cells (expressing hCXCR4/hCCR5/hCD4/pHIV-LTR-luciferase) were harvested and diluted in Dulbeccos modified Eagles media supplemented with 2% FCS and non-essential amino acid to a concentration of 60,000 cells/ml. The cells were plated into 96-well plates (100 ul per well) and the plates were placed in a tissue culture incubator (37° C.; 5% CO2/95% air) for a period of 24 h.
# Subsequently, 50 ul of the desired drug solution (4 times the final concentration) was added to each well and the plates were returned to the tissue culture incubator (37° C.; 5% CO2/95% air) for 1 h. Following this incubation 50 ul of diluted virus was added to each well (approximately 2 million RLU per well of virus). The plates were returned to the tissue culture incubator (37° C.; 5% CO2/95% air) and were incubated for a further 96 h.
# Following this incubation the endpoint for the virally infected cultures was quantified following addition of Steady-Glo Luciferase assay system reagent (Promega, Madison, Wis.). Cell viability or non-infected cultures was measured using a CellTiter-Glo luminescent cell viability assay system (Promega, Madison, Wis.). All luminescent readouts are performed on a Topcount luminescence detector (Packard, Meridien, Conn.).
row,Compound,IC50
1,"NCCCN(Cc1cn2ccccc2n1)C1CCCc2cccnc21 (stereo not shown) [Example 44, N-(Imidazo[1,2-a]pyridin-2-ylmethyl)-N-(5,6,7,8-tetrahydro-8-quinolinyl)-1,3-propanediamine]",500 to 10000 nM
2,"NCCCCN(Cc1nc2ccccn2c1Br)C1CCCc2cccnc21 (stereo not shown) [Example 46, N-[(3-Bromoimidazo[1,2-a]pyridin-2-yl)methyl]-N-(5,6,7,8-tetrahydro-8-quinolinyl)-1,4-butanediamine]",< 100 nM
3,"NCCCCN(Cc1nc2ccccn2c1Cl)C1CCCc2cccnc21 (stereo not shown) [Example 45, N-[(3-Chloroimidazo[1,2-a]pyridin-2-yl)methyl]-N-(5,6,7,8-tetrahydro-8-quinolinyl)-1,4-butanediamine]",< 100 nM
4,"NCCN(Cc1cn2ccccc2n1)C1CCCc2cccnc21 (stereo not shown) [Example 42, N-(Imidazo[1,2-a]pyridin-2-ylmethyl)-N-(5,6,7,8-tetrahydroquinolin-8-yl)ethane-1,2-diamine]",500 to 10000 nM
5,"CN1CCN(c2cccc3nc(CN(Cc4cccnc4)[C@H]4CCCc5cccnc54)cn23)CC1 [Example 31, (8S)-N-{[5-(4-Methyl-1-piperazinyl)imidazo[1,2-a]pyridin-2-yl]methyl}-N-(3-pyridinylmethyl)-5,6,7,8-tetrahydro-8-quinolinamine]",< 100 nM
6,"CN1CCN(c2cccc3nc(CN(Cc4ccccc4N(C)C)[C@H]4CCCc5cccnc54)cn23)CC1 [Example 29, (8S)-N-{[2-(Dimethylamino)phenyl]methyl}-N-{[5-(4-methyl-1-piperazinyl)imidazo[1,2-a]pyridin-2-yl]methyl}-5,6,7,8-tetrahydro-8-quinolinamine]",< 100 nM
7,"CN1CCN(c2cccc3nc(CN(Cc4cccnc4)[C@H]4CCCc5cccnc54)c(CO)n23)CC1 [Example 35, [5-(4-Methyl-1-piperazinyl)-2-({(3-pyridinylmethyl)[(8S)-5,6,7,8-tetrahydro-8-quinolinyl]amino}methyl)imidazo[1,2-a]pyridin-3-yl]methanol]",< 100 nM
8,"CN1CCN(c2cccc3nc(CN(Cc4ccncc4)[C@H]4CCCc5cccnc54)c(CO)n23)CC1 [Example 36, [5-(4-Methyl-1-piperazinyl)-2-({(4-pyridinylmethyl)[(8S)-5,6,7,8-tetrahydro-8-quinolinyl]amino}methyl)imidazo[1,2-a]pyridin-3-yl]methanol]",< 100 nM

# Next, values leading:
row,IC50,Compound
1,< 100 nM,"CN1CCN(c2cccc3nc(CN(Cc4ccncc4)[C@H]4CCCc5cccnc54)cn23)CC1 [Example 32, (8S)-N-{[5-(4-Methyl-1-piperazinyl)imidazo[1,2-a]pyridin-2-yl]methyl}-N-(4-pyridinylmethyl)-5,6,7,8-tetrahydro-8-quinolinamine]"
2,< 100 nM,"CN1CCN(c2cccc3nc(CN(Cc4ccccn4)[C@H]4CCCc5cccnc54)c(CO)n23)CC1 [Example 34, [5-(4-Methyl-1-piperazinyl)-2-({(2-pyridinylmethyl)[(8S)-5,6,7,8-tetrahydro-8-quinolinyl]amino}methyl)imidazo[1,2-a]pyridin-3-yl]methanol]"
3,100 to 500 nM,"CN1CCN(c2cccc3nc(CN(Cc4ccccn4)[C@H]4CCCc5cccnc54)cn23)CC1 [Example 30, (8S)-N-{[5-(4-Methyl-1-piperazinyl)imidazo[1,2-a]pyridin-2-yl]methyl}-N-(2-pyridinylmethyl)-5,6,7,8-tetrahydro-8-quinolinamine]"
4,100 to 500 nM,"NCCCCCN(Cc1cn2ccccc2n1)C1CCCc2cccnc21 (stereo not shown) [Example 43, N-(Imidazo[1,2-a]pyridin-2-ylmethyl)-N-(5,6,7,8-tetrahydro-8-quinolinyl)-1,5-pentanediamine]"
5,100 to 500 nM,"NC1CCC(N(Cc2cn3ccccc3n2)C2CCCc3cccnc32)CC1 (stereo not shown) [Example 37, N-(Imidazo[1,2-a]pyridin-2-ylmethyl)-N-(5,6,7,8-tetrahydro-8-quinolinyl)-1,4-cyclohexanediamine]"
